Data as given in patent US20200031778A1, “NOVEL 5-SUBSTITUTED IMIDAZOLYLMETHYL DERIVATIVES” (Bayer CropScience Aktiengesellschaft, priority 2016, published 2020).

Assay: Log P by HPLC on reversed phase columns (EEC directive 79/831 Annex V.A8; methods [a], [b], [c])
Assay type: physicochemical
Settings: not given
How it was run: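 Reversed-phase HPLC with LC-UV detection, 10→95% acetonitrile linear gradient; aqueous eluent 0.1% formic acid [a], 0.001 M ammonium acetate, neutral [b], or 0.1% phosphoric acid [c]. Calibrated against C3–C16 alkan-2-ones of known Log P by retention-time linear interpolation; multiple values within a method separated by "+".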

Row | LogP | SMILES
1 | 2.42^[a] | C#Cc1ccc(C(O)(Cn2cncc2C#N)C2(Cl)CC2)c(F)c1 (stereo not drawn) [I-659]
2 | 2.66^[a] | CCCC(O)(Cn1cncc1C#N)c1ccccc1C(F)(F)F (stereo not drawn) [I-313]
3 | 1.84^[a] | CC(O)(Cn1cncc1F)c1ccc(Oc2ccc(Br)nc2)nc1C(F)(F)F (stereo not drawn) [I-363]
4 | 2.27^[a] | N#Cc1cncn1CC(O)(c1ccc(Cl)cc1)C1CC1 (stereo not drawn) [I-305]
5 | 3.14^[a] | CCCC(O)(Cn1cncc1C#N)c1ccc(Cl)cc1Cl (stereo not drawn) [I-292]
6 | 2.78^[a] | CCC(C)C(O)(Cn1cncc1C#N)c1ccc(Cl)cc1 (single isomer, unassigned) [I-326]
7 | 2.52^[a] | N#Cc1cncn1CC(O)(c1ccc(F)c(Cl)c1F)C1(Cl)CC1 (stereo not drawn) [I-627]
8 | 2.61^[a] | N#Cc1cncn1CC(O)(c1cc(Cl)c(F)cc1Br)C1(F)CC1 (stereo not drawn) [I-687]
9 | 2.68^[a] | CC(C)C(O)(Cn1cncc1C#N)c1ccc(Cl)cc1F (stereo not drawn) [I-417]
10 | 2.15^[a] | N#Cc1cncn1CC(O)(c1c(F)ccc(F)c1Cl)C1(F)CC1 (stereo not drawn) [I-567]
11 | 2.52^[a] | N#Cc1cncn1CC(O)(c1cc(Cl)cc(F)c1Cl)C1(F)CC1 (stereo not drawn) [I-571]
12 | 2.21^[a] | CCCC(O)(Cn1cncc1C#N)c1ccc(F)cc1 (stereo not drawn) [I-378]
13 | 4.16^[a] | CCOC(Cn1cncc1Br)c1ccc(Oc2ccc(Cl)cc2)cc1C(F)(F)F (stereo not drawn) [I-33]
14 | 2.17^[a] | N#Cc1cncn1CC(O)(c1ccc(F)c(F)c1)C1(F)CC1 (stereo not drawn) [I-445]
15 | 2.18^[a] | N#Cc1cncn1CC(O)(c1cc(F)cc(F)c1F)C1(F)CC1 (stereo not drawn) [I-588]
16 | 3.16^[a] | COC(Cn1cncc1F)c1ccc(Oc2ccc(Cl)cc2)cc1C(F)(F)F (stereo not drawn) [I-108]
17 | 1.81^[a] | N#Cc1cncn1CC(O)c1ccccc1C(F)(F)F (stereo not drawn) [I-150]
18 | 3.39^[a] | CC(C)(C)CC(O)(Cn1cncc1C#N)c1ccc(F)cc1Cl (stereo not drawn) [I-259]
19 | 4.69^[a] | CCOC(Cn1cncc1C#N)c1ccc(Oc2ccc(Br)cc2)cc1C(F)(F)F (stereo not drawn) [I-91]
20 | 2.71^[a] | CC(C)(C)C(O)(Cn1cncc1C#N)c1ccc(F)cc1F (stereo not drawn) [I-385]
21 | 2.35^[a] | N#Cc1cncn1CC(O)(c1ccc(F)cc1Cl)C1(Cl)CC1 (stereo not drawn) [I-236]
22 | 1.74^[a] | N#Cc1cncn1CC(O)(C#CC1CC1)C1(F)CC1 (stereo not drawn) [I-693]

Row | LogP | SMILES
23 | 2.35^[a] | N#Cc1cncn1CC(O)(c1ccc(F)c(Br)c1F)C1(F)CC1 (stereo not drawn) [I-625]
24 | 2.64^[a] | CC(O)(Cn1cncc1F)c1ccc(Oc2ccc(Cl)cc2)cc1C(F)(F)F (stereo not drawn) [I-211]
25 | 3.39^[a] | CC(C)(C)c1ccc(C#CC(O)(Cn2cncc2C#N)C2(F)CC2)cc1 (stereo not drawn) [I-372]
26 | 2.75^[a] | N#Cc1cncn1CC(O)(c1cc(F)c(Cl)cc1Cl)C1(Cl)CC1 (stereo not drawn) [I-585]
27 | 2.58^[a] | CC(O)(Cn1cncc1C#N)c1cnc(Oc2ccc(Br)nc2)cc1C(F)(F)F (stereo not drawn) [I-362]
28 | 2.15^[a] | CC(O)(Cn1cncc1F)c1ccc(Oc2ccc(C(F)F)cc2)nc1C(F)(F)F (stereo not drawn) [I-295]
29 | 2.37^[a] | OC(Cn1cncc1Cl)c1ccc(Oc2ccc(C(F)(F)F)cc2)cc1 (stereo not drawn) [I-13]
30 | 2.21^[a] | C#Cc1ccc(C(O)(Cn2cncc2C#N)C2(F)CC2)c(F)c1 (stereo not drawn) [I-647]
31 | 2.39^[a] | N#Cc1cncn1CC(O)(c1cccc(Cl)c1Cl)C1(F)CC1 (stereo not drawn) [I-438]
32 | 2.13^[a] | CC(O)(Cn1cncc1Cl)c1ccc(Oc2ccc(Cl)nc2)cc1Cl (stereo not drawn) [I-176]
33 | 3.80^[a] | N#Cc1cncn1CC(O)(CC1CCCCC1)c1ccc(Cl)cc1F (stereo not drawn) [I-468]
34 | 4.01^[a] | N#Cc1cncn1CC(O)(c1ccc(C#CC2CCCC2)cc1Cl)C1(F)CC1 (stereo not drawn) [I-640]
35 | 1.73^[a] | OC(Cn1cncc1F)(c1ccc(Cl)cc1Br)C1(F)CC1 (stereo not drawn) [I-431]
36 | 2.90^[a] | CC(C)(C)CC(O)(Cn1cncc1C#N)c1ccc(F)cc1 (stereo not drawn) [I-226]
37 | 4.11^[a] | CC(O)(Cn1cncc1C(F)(F)F)c1ccc(Oc2ccc(I)cc2)cc1F (stereo not drawn) [I-179]
38 | 2.95^[a] | N#Cc1cncn1CC(O)(CC1CC1)c1cc(Cl)c(F)c(Cl)c1 (stereo not drawn) [I-493]
39 | 1.98^[a] | OC(Cn1cncc1F)c1ccc(Oc2ccc(C(F)(F)F)nc2)nc1C(F)(F)F (stereo not drawn) [I-142]
40 | 2.78^[a] | CC(=O)c1cncn1CC(C)(O)c1cnc(Oc2ccc(Cl)cc2)cc1C(F)(F)F (stereo not drawn) [I-250]
41 | 2.70^[a] | N#Cc1cncn1CC(O)(c1cc(Cl)c(F)cc1Cl)C1(Cl)CC1 (stereo not drawn) [I-581]
42 | 3.52^[a] | N#Cc1cncn1CC(O)c1ccc(Oc2ccc(C(F)(F)F)cc2)cc1C(F)(F)F (stereo not drawn) [I-53]
43 | 2.56^[a] | N#Cc1cncn1CC(O)(c1cc(Cl)ccc1Cl)C1(Cl)CC1 (stereo not drawn) [I-336]
44 | 2.45^[a] | N#Cc1cncn1CC(O)(c1cc(F)c(Cl)cc1F)C1(F)CC1 (stereo not drawn) [I-580]

Row | LogP | SMILES
45 | 2.53^[a] | N#Cc1cncn1CC(O)(c1ccc(F)cc1F)C1CCC1 (stereo not drawn) [I-447]
46 | 2.48^[a] | N#Cc1cncn1CC(O)(c1ccc(F)cc1Br)C1(Cl)CC1 (stereo not drawn) [I-387]
47 | 3.21^[a] | CC(O)(Cn1cncc1C#N)c1cnc(Oc2ccc(C(F)(F)F)cc2)cc1Cl (stereo not drawn) [I-254]
48 | 2.80^[a] | OC(Cn1cncc1Cl)c1ccc(Oc2ccc(I)cc2)cc1Br (stereo not drawn) [I-101]
49 | 2.92^[a] | N#Cc1cncn1CC(O)(c1ccc(C2CC2)cc1Cl)C1CC1 (stereo not drawn) [I-406]
50 | 2.66^[a] | N#Cc1cncn1CC(O)(c1ccc(Cl)cc1Br)C1(F)CC1 (stereo not drawn) [I-386]
51 | 2.68^[a] | OC(Cn1cncc1Br)c1ccc(Oc2ccc(Cl)cc2)cc1Br (stereo not drawn) [I-24]
52 | 2.95^[a] | CCCCC(O)(Cn1cncc1C#N)c1ccc(F)cc1Cl (stereo not drawn) [I-276]
53 | 2.61^[a] | N#Cc1cncn1CC(O)(c1cc(Cl)c(F)cc1F)C1(Cl)CC1 (stereo not drawn) [I-586]
54 | 2.32^[a] | CC(O)(Cn1cncc1Cl)c1ccc(Oc2ccc(Cl)cc2)cc1 (stereo not drawn) [I-164]
55 | 2.18^[a] | N#Cc1cncn1CC(O)(CC1CC1)c1cc(F)ccc1F (stereo not drawn) [I-515]
56 | 2.04^[a] | N#Cc1cncn1CC(O)(c1ccc(F)cc1)C1(F)CC1 (stereo not drawn) [I-351]
57 | 2.07^[a] | N#Cc1cncn1CC(O)(c1c(F)ccc(F)c1F)C1(F)CC1 (stereo not drawn) [I-590]
58 | 2.54^[a] | N#Cc1cncn1CC(O)(CC1CC1)c1cc(F)cc(Cl)c1 (stereo not drawn) [I-497]
59 | 2.34^[a] | CC(O)(Cn1cncc1F)c1ccc(Oc2ccc(Cl)cc2)cc1Cl (stereo not drawn) [I-194]
60 | 2.27^[a] | N#Cc1cncn1CC(O)(c1ccc(Cl)cc1)C1(F)CC1 (stereo not drawn) [I-231]
61 | 2.36^[a] | COc1c(Cl)ccc(C(O)(Cn2cncc2C#N)C2(F)CC2)c1F (stereo not drawn) [I-527]
62 | 2.51^[a] | N#Cc1cncn1CC(O)(c1ccc(Cl)cc1Cl)C1(F)CC1 (stereo not drawn) [I-237]
63 | 3.89^[a] | COC(C)(Cn1cncc1Br)c1ccc(Oc2ccc(Br)cc2)cc1C(F)(F)F (stereo not drawn) [I-200]
64 | 2.51^[a] | OC(Cn1cncc1Cl)c1ccc(Oc2ccc(Cl)cc2)nc1C(F)(F)F (stereo not drawn) [I-34]
65 | 1.98^[a] | CC(O)(Cn1cncc1F)c1ccc(Oc2ccc(Cl)cc2)nc1F (stereo not drawn) [I-214]
66 | 2.62^[a] | N#Cc1cncn1CC(O)(C#CC1CCCC1)CC1CC1 (stereo not drawn) [I-452]

Row | LogP | SMILES
67 | 2.41^[a] | C/C=C(\C)C(O)(Cn1cncc1C#N)c1ccc(F)cc1F (stereo not drawn) [I-396]
68 | 3.73^[a] | CC(O)(Cn1cncc1C#N)c1ccc(Oc2ccc(Br)cc2)cc1Br (stereo not drawn) [I-219]
69 | 1.53^[a] | NC(=S)c1cncn1CC(O)(CC1CC1)c1ccc(F)cc1F (stereo not drawn) [I-484]
70 | 2.54^[a] | N#Cc1cncn1CC(O)c1ccc(Oc2ccccc2)cc1F (stereo not drawn) [I-99]
71 | 2.51^[a] | COc1nc(Cl)ccc1C(O)(Cn1cncc1C#N)C1(Cl)CC1 (stereo not drawn) [I-561]
72 | 2.43^[a] | N#Cc1cncn1CC(O)(CC1CC1)c1cc(Cl)ccc1F (stereo not drawn) [I-516]
73 | 3.15^[a] | CC(C)(C)CC(O)(Cn1cncc1C#N)c1cccc(F)c1Cl (stereo not drawn) [I-368]
74 | 2.94^[a] | N#Cc1cncn1CC(O)c1ccc(Oc2ccc(Cl)cc2F)nc1C(F)(F)F (stereo not drawn) [I-136]
75 | 3.83^[a] | CC(O)(Cn1cncc1C(F)(F)F)c1ccc(Oc2ccc(Cl)cc2)cc1F (stereo not drawn) [I-205]
76 | 3.44^[a] | CC(C)(C)CC(O)(Cn1cncc1C#N)c1ccc(Cl)cc1F (stereo not drawn) [I-260]
77 | 2.49^[a] | N#Cc1cncn1CC(O)(c1cc(F)cc(Cl)c1Cl)C1(F)CC1 (stereo not drawn) [I-568]
78 | 2.75^[a] | OC(Cn1cncc1Cl)c1ccc(Oc2ccc(Br)cc2)cc1Cl (stereo not drawn) [I-11]
79 | 2.32^[a] | CC(O)(Cn1cncc1Cl)c1ccc(Oc2ccc(Br)cn2)cc1Cl (stereo not drawn) [I-204]
80 | 2.83^[a] | CC(C)(C)CC(O)(Cn1cncc1C#N)c1ccc(Br)cc1Cl (stereo not drawn) [I-334]
81 | 2.98^[a] | N#Cc1cncn1CC(O)(c1cc(Cl)c(Cl)cc1Cl)C1(Cl)CC1 (stereo not drawn) [I-562]
82 | 2.28^[a] | CC(O)(Cn1cncc1Cl)c1ccc(Oc2ccc(Cl)cn2)cc1Cl (stereo not drawn) [I-181]
83 | 3.65^[a] | CCCCC(O)(Cn1cncc1C#N)c1ccc(C(F)(F)F)cc1Cl (stereo not drawn) [I-266]
84 | 1.94^[a] | N#Cc1cncn1CC(O)(c1c(F)cccc1F)C1(F)CC1 (stereo not drawn) [I-520]
85 | 2.75^[a] | OC(Cn1cncc1Cl)c1ccc(Oc2ccc(C(F)(F)F)cc2)c(Br)c1 (stereo not drawn) [I-12]
86 | 2.76^[a] | C[Si](C)(C)C#CC(O)(Cn1cncc1C#N)C1(Cl)CC1 (stereo not drawn) [I-318]
87 | 2.78^[a] | N#Cc1cncn1CC(O)(c1ccc(Cl)cc1C(F)(F)F)C1CC1 (stereo not drawn) [I-464]

Row | SMILES | LogP
88 | N#Cc1cncn1CC(O)(c1ccc(Cl)nc1Cl)C1(Cl)CC1 (stereo not drawn) [I-597] | 2.12^[a]
89 | N#Cc1cncn1CC(O)(c1ccc(F)nc1F)C1(F)CC1 (stereo not drawn) [I-551] | 1.79^[a]

Same assay, conditions: reversed phase HPLC column; method [a], HPLC on reversed phase columns

Row | chromatographic logP | SMILES
90 | 3.79 | N#Cc1cncn1CC(O)(CCC1CCCCC1)C1(Cl)CC1 (stereo not drawn) [I-660, 1-[2-(1-chlorocyclopropyl)-4-cyclohexyl-2-hydroxybutyl]-1H-imidazole-5-carbonitrile]

Same assay, conditions: reversed phase HPLC column; method [a]: LC-UV, acidic range, 0.1% formic acid in water and acetonitrile as eluent (linear gradient from 10% to 95% acetonitrile)

Row | chromatographic logP | SMILES
91 | 3.71 | CCC(=O)c1cncn1CC(=O)c1ccc(Oc2ccc(Br)cc2)cc1C(F)(F)F [IX-139]
92 | 3.13 | CC(=O)c1cncn1CC(=O)c1ccc(Oc2ccc(Cl)cc2)nc1C(F)(F)F [IX-119]
93 | 2.12 | O=C(Cn1cncc1Cl)c1ccc(Oc2ccc(Cl)cn2)cc1 [IX-02]
